# Laboratory results reported in EP0903341A1, “"Novel ortho-mercaptoaniline compounds"” (Akzo Nobel N.V., priority 1997, dated 1999).
# How the values were obtained:
# Entamoeba histolytica = assay: Anti-amoebic action in vivo in rats infected in the caecum (cure index); conditions: for cure index: five days
# [1] = tested on: Entamoeba histolytica 200: NIH or E-32; assay: Anti-amoebic action in vitro (axenic culture, minimum inhibitory concentration); assay type: cell-based; conditions: axenic culture in TYI-S-33 medium, 48 h incubation with compound at 37°C, amoebae counted by microscope, read-out: minimum concentration active in killing the amoeba
# Method: Axenic Entamoeba histolytica cultures were grown in glass, screw-capped tubes (16x100 mm) containing about 10 ml complete growth medium TYI-S-33. The tubes were inoculated with 0.5 ml of a 72 h old axenic culture of Entamoeba histolytica 200: NIH or E-32, obtained from an external supplier (Kothari Research Centre, Calcutta, India). After incubation for 24 h at 37°C compounds to be tested were added at desired concentrations. Incubation of the tubes was continued for an additional 48 h. The number of amoebae in the medium were counted by microscopic examination at 100x magnification. The complete growth medium TYI-S-33 medium was prepared by mixing aseptically 9 ml of a nutrient solution, 1 ml of animal serum, 0.3 ml of a vitamin mixture and 0.05 ml of a solution containing the antibiotics streptomycine and benzylpenicillin. The composition of TYI-S-33 medium and method of preparation is described in detail by Diamond (J Parasitology 54:1047-1056, 1968). Test compounds are tested at different concentrations, the highest is 100 µg/ml. Lower concentrations are tested in successive tests until the minimum inhibitory concentration is reached. The reference compounds tinidazole was active in killing the amoeba at a minimum concentration of 1.5 µg/ml. Compound B of this invention was active in killing the amoeba at a minimum concentration of 3.1 µg/ml.
Compound,cure index (Entamoeba histolytica; Dose 9 mg/kg oral),cure index (Entamoeba histolytica; Dose 18.8 mg/kg oral),cure index (Entamoeba histolytica; Dose 37.5 mg/kg oral),cure index (Entamoeba histolytica; Dose 75 mg/kg oral),cure index (Entamoeba histolytica; Dose 100 mg/kg oral),"increase in cure index (in words) (Entamoeba histolytica; doses of 9 or 20 mg/kg per day, oral)",MIC [1],cure index (Entamoeba histolytica; Dose 150 mg/kg oral),cure index (Entamoeba histolytica; Dose 200 mg/kg oral)
"COc1ccc(CCNCCC(=O)N(C)c2ccccc2SC)cc1OC [Compound A, 3-[2-(3,4-dimethoxyphenyl)ethylamino]-N-methyl-N-[(2-methylthio)phenyl]-propionamide]",23 percentage of the control group,34 percentage of the control group,56 ±5 percentage of the control group,76 ±6 percentage of the control group,74 ± 10 percentage of the control group,No increase in cure index,–,–,–
"COc1ccc(CSc2ccccc2N(C)CCCN(C)CCc2ccc(OC)c(OC)c2)cc1 [Compound B, N-[2-(3,4-dimethoxyphenyl)ethyl]-N-methyl-N'-[2-(4-methoxyphenyl)methylthiophenyl]-N'-methyl-1,3-diaminopropane]",–,–,–,–,–,–,3.1 µg/mL,–,–
"CCS(=O)(=O)CCn1c([N+](=O)[O-])cnc1C [Tinidazole, reference compound]",–,–,–,51 ± 8 percentage of the control group,–,–,1.5 µg/mL,66 ± 5 percentage of the control group,81 ± 5 percentage of the control group
